Experimental data taken from patent publication US20240417435A1, “DEFENSIN-DERIVED PEPTIDE WITH ANTIBACTERIAL ACTIVITY ALSO AGAINST MULTI-ANTIBIOTIC-RESISTANT BACTERIA” (priority 2021, published 2024).

Tests used:
[1] = system: S. aureus ATCC 6538; test: SYTOX Green absorption assay (membrane permeabilisation); type: cell-based, Staphylococcus aureus
Experimental: (§1) The effect of peptide γ2 on the membrane integrity of S. aureus ATCC 6538 and P. aeruginosa ATCC 27853 was evaluated by measuring the extent of intracellular accumulation of SYTOX green (Juba M L, et al. Biochim Biophys Acta. 2015; 1848 (5): 1081-91). The cells were harvested halfway through the log phase, washed, and resuspended in 10 mM of phosphate buffer. The final density was adjusted to 5×10^7 CFU/mL. The cells were then treated with peptide γ2 (0.625, 1.25, 2.5, 12.5, 25 μM) in the presence of 200 nM SYTOX green (Invitrogen). The fluorescence increase of SYTOX green, a direct measurement of the degree of membrane permeabilisation, was monitored with a fluorescence spectrophotometer. The excitation and emission wavelengths used were 503 nm and 523 nm respectively. 5

[2] = system: P. aeruginosa ATCC 27853; test: as above; type: cell-based, Pseudomonas aeruginosa
Experimental: as §1

[3] = system: S. aureus ATCC 6538 biofilm; test: Biofilm formation and maturation, crystal violet; type: cell-based, Staphylococcus aureus; conditions: concentrations slightly higher than MIC, dose-dependent, maximum activity at 125 μM
Experimental: (§2) The biofilm formation test for S. aureus ATCC 6538 and P. aeruginosa ATCC 27853 was conducted in 96-well plates, as previously reported (Merritt J H, Kadouri D E, O'Toole G A. Growing and analyzing static biofilms. Curr Protoc Microbiol. 2005; Chapter 1: Unit 1B.1.)
(§3) Briefly, the bacteria from overnight cultures were diluted and grown to 0.5 McFarland. The bacteria were diluted 1:100 and plated in each well containing 100 μL of BHI broth. To evaluate the impact of peptide γ2 on biofilm formation, the medium was supplemented with various concentrations of peptide (2.5, 12.5, 25 and 125 μM) and incubated overnight. To evaluate biofilm maturation, the bacteria of the cultures grown overnight were diluted 1:1000, and 5 μL of said bacterial suspensions was added to each well, containing 100 μL of BHI broth, and left to grow overnight. The medium was then removed and replaced with fresh medium containing various peptide concentrations (2.5, 12.5 and 125 μM). At the end of incubation, the medium was removed; the biofilms were washed twice with PBS and stained with crystal violet (1%) for 30 minutes, then resuspended in 200 μL of ethanol. The negative controls were bacteria incubated with medium only. The positive controls were bacteria incubated with medium supplemented with 0.42 μM gentamicin.

[4] = system: P. aeruginosa ATCC 27853 biofilm; test: Biofilm formation and maturation, crystal violet; type: cell-based, Pseudomonas aeruginosa; conditions: concentrations slightly higher than MIC, dose-dependent, maximum activity at 125 μM
Experimental: as §2, §3

[5] = system: S. aureus ATCC 6538 biofilm; test: Biofilm formation by LIVE/DEAD imaging; type: cell-based, Staphylococcus aureus; conditions: 24 h static culture
Experimental: (§4) The formation of S. aureus ATCC 6538 and P. aeruginosa ATCC 27853 biofilms was also evaluated by imaging. The medium was then supplemented with various peptide concentrations (2.5, 12.5 and 25 μM) and incubated overnight, and the biofilms were stained with a FilmTracer LIVE/DEAD biofilm viability kit (Invitrogen) according to the manufacturer's instructions. The images were acquired with Cell Discoverer 7, Zeiss.

[6] = system: P. aeruginosa ATCC 27853 biofilm; test: Biofilm formation by LIVE/DEAD imaging; type: cell-based, Pseudomonas aeruginosa; conditions: 24 h static culture
Experimental: as §4

[7] = system: A549 cells; test: Cell migration assay in Boyden chambers; type: cell-based
Experimental: (§5) Cell migration assays were conducted as previously described (Bifulco K et al., Mol Cancer There 2013; 2:1981-93), using Boyden chambers and polyvinylpyrrolidone-free polycarbonate filters with 8 μm pores inserted between a lower and upper compartment. Briefly, the cell suspension (1×10^5 viable cells/mL of serum-free medium) was seeded in each upper chamber. The lower chambers were filled with DMEM only, DMEM containing 10 nM N-formyl-methionyl-leucylphenylalanine peptide (fMLF), as positive control, or increasing peptide γ2 concentration. Incubation was conducted for 4 h at 37° C. in air humidified with 5% CO2. At the end of the assay, the cells on the lower surface of the filter were fixed with ethanol and stained with haematoxylin, and 10 random fields/filter were counted with a 200× magnification. The extent of cell migration was expressed as a percentage of baseline cell migration evaluated in the absence of chemo-attractants, taken as 100% (CTRL).

[8] = system: HT-1080 cells; test: Cell migration assay in Boyden chambers; type: cell-based
Experimental: as §5

[9] = system: HUVEC endothelial cells; test: Cell migration assay in Boyden chambers; type: cell-based
Experimental: as §5

[10] = system: peripheral blood mononuclear cells (PBMC); test: Cytokine secretion measurement (ProcartaPlex/Luminex); type: cell-based, human; conditions: PBMCs from healthy donors; 1.25 and 12.5 μM; 18 hours
Description: Supernatants for cytokine evaluation were harvested from peripheral blood mononuclear cell cultures (PBMCs) and analysed with the Invitrogen ProcartaPlex bead-based immunoassay (Invitrogen, Thermo Fisher Scientific) using the Luminex instrument platform (Luminex 200, Luminex Corporation), according to the manufacturer's instructions. xPONENT 3.1 software (Luminex) was used for acquisition and analysis of the samples.

[11] = system: HT-1080 cells
Experimental: (§6) Parental HT-1080, HUVEC, SH-SY5Y human fibroblasts (HF) and A549 cells from Culture Cell Lines Facility CEINGE Biotecnologie Avanzate s.c.ar.l., Naples, Italy, and HeLa cells (ATCC CCL-2) stored in liquid nitrogen, were thawed by stirring the vials gently for 2 minutes in a water bath at 37° C. […]
(§7) The cells were incubated for 24 hours at 37° C. in 5% CO2 to allow them to grow and form a single layer in the flask. Cells grown to 80-95% confluency were washed with PBS, treated with 3 mL of trypsin-EDTA 1× solution, diluted, counted and seeded (4×10^3 cells/200 μl per well) in 96-well tissue-culture plates for 24 h in triplicate. The reduction in cell proliferation was evaluated with the 3-[4,5-dimethylthiazol-2-yl]-2,5-diphenyltetrazolium bromide (MTT) assay, which measures metabolic changes. […] After incubation, the presence of violet crystals, which normally indicate metabolisation of MTT, was evaluated. […] The specific stain eluted was measured with a spectrophotometer (550 nm). […] The cell inhibition percentage was determined with the following formula:
(§8) % cell inhibition=100−(Absorbance of treated cells/Absorbance of control cells)×100. […]
(§9) The mean percentage cell inhibition values for each cell line at different peptide γ2 concentrations compared with the untreated cells were analysed with One-way ANOVA.

[12] = system: A549 cells
Experimental: as §6, §7, §8, §9

[13] = system: HeLa cells
Experimental: as §6, §7, §8, §9

[14] = system: HUVEC cells
Experimental: as §6, §7, §8, §9

[15] = system: human fibroblasts (HF)
Experimental: as §6, §7, §8, §9

Ac-CLPKRRQIGKSSTRGRKSCKK-NH2 (not fully specified (bridges); printed as Ac-CLPKRRQIGKSSTRGRKSCKK-NH2; also: oxidised (disulfide) or reduced form, both stated) [peptide γ2]
incubation time at which increased influx of SYTOX Green was evident [1]: 40 min
dose at which the peptide already effectively permeabilised the bacteria ([1]; SYTOX Green, dose-dependent): 1.25 µM
incubation time at which increased influx of SYTOX Green was seen [2]: 15 min
dose at which the peptide already effectively permeabilised the bacteria ([2]; SYTOX Green, dose-dependent): 1.25 µM
biofilm formation [3]: significantly inhibited
biofilm maturation [3]: significantly inhibited
biofilm formation [4]: significantly inhibited
biofilm maturation [4]: significantly inhibited
smallest dose at which inhibition of biofilm formation was already evident [5]: 2.5 µM
smallest dose at which inhibition of biofilm formation was already evident [6]: 2.5 µM
directional migration, % of the baseline cell migration ([7]; 50 μM, 4 h): 169%
directional cell migration ([7]; 100 μM versus 50 μM): did not further increase directional cell migration
chemotactic effect ([7]; low concentrations): slight chemotactic effect
directional migration, % of the baseline cell migration ([8]; 50 μM, 4 h): 158%
directional cell migration ([8]; 100 μM versus 50 μM): did not further increase directional cell migration
chemotactic effect ([8]; low concentrations): slight chemotactic effect
directional cell migration ([9]; HUVEC, 100 μM versus 50 μM): did not further increase directional cell migration
chemotactic effect ([9]; HUVEC, low concentrations): slight chemotactic effect
directional migration, % of the baseline cell migration ([9]; endothelial cells (HUVEC), 50 μM, 4 h): 156%
IL-1 secretion [10]: up-regulated
IL-6 secretion [10]: up-regulated
IL-9 secretion [10]: up-regulated
INF-γ secretion [10]: up-regulated
cell viability [11]: viability remained high
reduction of cell viability [12]: about 20%
cell viability [13]: viability remained high
cell viability compared with the control cells ([13]; human, HeLa cells, 6 h, 40 µM): 97%
reduction of cell viability [14]: about 20%
reduction of cell viability [15]: about 20%
